According to patent publication US11542473B2, “Methods and compositions for generating hematopoietic cells” (priority 2016, dated 2023):

Legend:
[1] = tested on: hPSC-derived hematopoietic cells; assay: ROS detection with CellROX Deep Red by flow cytometry; format: cell-based, human; settings: day 14; versus control
Method: (§1) Application of fresh medium and treatment with 10 μM Forskolin (Stemgent, Cambridge, Mass., USA), 500 μM IBMX (3-isobutyl-1-methylxanthine, Santa Cruz Biotechnology, Dallas, Tex., USA) was carried out at day 10 and day 12 of differentiation. To inhibit PKA and Epac, 50 μM PKA inhibitor (Rp-8-CPT-cAMPS) and 20 μM Epac inhibitor (ESI-09) (both from BIOLOG Life Science Institute, Bremen, Germany) were used (20 min pretreatment followed by cAMP induction) on day 10 and day 12 of differentiation and the cells were analyzed on day 14. To analyze hemogenic endothelium, PKA and Epac were inhibited on day 6 and day 8 and the cells were analyzed on day 10. The distance between center of an EB and outer edge of its cellular spread was analyzed using ImageJ (developed at the National Institutes of Health, USA). Colony Formation Assay

HSC egress from the BM = settings: administration to mice; cited from earlier work
[2] = tested on: hPSC-derived hematopoietic cells (iPSC line RB9-CB1); assay: hPSC-to-hematopoietic differentiation, flow cytometry of HSC-like surface phenotype (Example 2); format: cell-based, human; settings: for frequency of HSC-like cells after inhibition / hematopoietic cell generation efficiency / blood emergence (CD43): inhibition on day 10 and day 12, analysis day 14; for HSC-like phenotype: specificity controls for cAMP, day 14; for concentration required to increase HSC-like phenotype as compared to Forskolin: day 14, representative experiment
Method: Human iPSC line RB9-CB1 derived from cord blood endothelial cells was cultured on irradiated mouse embryonic fibroblasts (MEFs) in Dulbecco's Modified Eagle Medium:Nutrient Mixture F-12 (DMEM/F12) supplemented with 20% KnockOut-serum replacement (KOSR), 2 mM L-glutamine, 0.1 mM non-essential amino acids, 0.1 mM 2-mercaptoethanol and 10 ng/ml basic fibroblast growth factor, all from Thermo Fischer Scientific Inc. (Waltham, Mass., USA). The cells were incubated in a humidified incubator at […] and 5% CO2.
(§2) Embryoid bodies (EBs) were prepared after incubating the pluripotent stem cell colonies with 2 mg/ml Dispase (Thermo Fischer Scientific Inc.), followed by gentle pipetting. The detached colonies were washed twice with 20% KOSR containing DMEM/F12, before plating in ultra low-adherence suspension culture dishes (Corning Inc., Corning, N.Y., USA) to form EBs for 8 days. During suspension culture, MesoTotal™ HPC/HSC Differentiation System (Primorigen Biosciences, Madison, Wis., USA) was used to specify the EBs towards mesoderm commitment. At day 8, EBs were plated on 0.08 μg/mm2 Matrigel™ (BD Biosciences, Franklin Lakes, N.J., USA) and further differentiation towards hematopoietic cells was carried out till day 14 in MesoTotal medium.
as §1

[3] = tested on: adherent endothelial-like cells of plated EBs; assay: Radial spreading of adherent endothelial-like cells from embryoid bodies (ImageJ); format: cell-based, human; settings: in the absence or presence of Forskolin+IBMX
Method: as §2, with “At day 8, EBs were plated on 0.08 μg/mm2 Matrigel™ (BD Biosciences, Franklin Lakes, N.J., USA) and further differentiation towards hematopoietic cells was carried out till day 14 in MesoTotal medium.” left out
as §1, with “Colony Formation Assay” left out

[4] = tested on: hemogenic endothelium phenotype cells (CD43-CD34+CXCR4-CD73-Vecad+); assay: Hemogenic endothelium phenotype by flow cytometry; format: cell-based, human; settings: inhibition on day 6 and day 8, analysis day 10; in the absence or presence of Forskolin+IBMX
Method: as §1

[5] = tested on: CXCR4 in hPSC-derived hematopoietic cells; assay: CXCR4 surface expression by flow cytometry; format: cell-based, human; settings: with or without cAMP induction, compared to the control
Method: as §1

human cord blood = settings: PGE2-mediated cAMP activation; cited from earlier work
[6] = tested on: differentiating human ES/iPS cells; assay: hPS-to-blood differentiation, FACS analysis of hematopoietic subsets (Example 1); format: cell-based
[7] = tested on: hematopoietic cells derived from human ES/iPS cells; assay: Colony forming unit assay in methylcellulose (Example 1); format: cell-based
Method: CFU potential of hematopoietic cells after the 14 day differentiation assay was assessed by plating 2×10^4 cells in Methocult […] (Stem Cell Technologies) supplemented with human SCF (25 ng/ml), GM-CSF (50 ng/ml), IL3 (25 ng/ml) and Erythropoietin (5 U/ml). Cells were incubated in a humidified incubator at 37° C., 5% CO2 for 14 days and colonies were quantified by bright-field microscopy.

[8] = NE treatment (10 μM, 300 μM) at day 10 and 12, analysis day 14

Structure (SMILES): CC(C)Cn1c(=O)n(C)c(=O)c2[nH]cnc21 [IBMX, 3-isobutyl-1-methylxanthine]
- ROS levels in various hematopoietic phenotypes, including the HSC-like cells [1]: significantly lowered

Structure (SMILES): CNC[C@H](O)c1ccc(O)c(O)c1 [epinephrine]
- HSC egress from the BM (HSC egress from the BM): increased

Structure (SMILES): CC(C)(C)c1cc(C(=O)C(C#N)=NNc2cccc(Cl)c2)no1 [Epac inhibitor]
- frequency of HSC-like cells after inhibition [2]: decreased
- hematopoietic cell generation efficiency / blood emergence (CD43) [2]: reduced
- radial spreading of adherent endothelial-like cells [3]: reduced
- hemogenic endothelial fraction [4]: decreased
- CXCR4 expression after Epac inhibition [5]: reduced

Structure (SMILES): C=C[C@@]1(C)CC(=O)[C@@H]2[C@@]3(C)CCCC(C)(C)[C@@H]3[C@H](O)[C@H](OC(C)=O)[C@@]2(C)O1 [1,9-dideoxy Forskolin, 1,9-Dideoxyforskolin]
- HSC-like phenotype [2]: cannot induce

Structure (SMILES): CCCCC[C@H](O)/C=C/[C@H]1[C@H](O)CC(=O)[C@@H]1C/C=C\CCCC(=O)O [Prostaglandin E2 (PGE2), Prostaglandin E2]
- human cord blood engraftment (human cord blood): enhances

Structure (SMILES): Cc1ccc(OCC(O)C(C)NC(C)C)c2c1CCC2 (stereo not shown) [ADRB2 antagonist, ICI118,551]
- mediation of the norepinephrine effect through ADRB2 ([6]; addition of specific ADRB2 antagonist (ICI118,551 at 20 μM) to NE-treated cultures): unlikely to be mediated through this receptor

Structure (SMILES): Nc1ncnc2c1nc(Br)n2[C@@H]1O[C@@H]2COP(=O)(O)O[C@H]2[C@H]1O [8-Br-cAMP, 8-bromo-adenosine-3′,5′-cyclic monophosphate]
- concentration required to increase HSC-like phenotype as compared to Forskolin [2]: 10 fold
- HSC-like phenotype [2]: upregulated

Structure (SMILES): CCCC(=O)Nc1ncnc2c1ncn2[C@@H]1O[C@@H]2COP(=O)(O)O[C@H]2[C@H]1OC(=O)CCC [dibutyryl-cAMP, N6,O2-dibutyrl-adenosine-3′,5′-cyclic monophosphate]
- concentration required to increase HSC-like phenotype as compared to Forskolin [2]: 10 fold
- HSC-like phenotype [2]: upregulated

Structure (SMILES): Nc1ncnc2c1nc(Sc1ccc(Cl)cc1)n2[C@@H]1O[C@@H]2COP(O)(=S)O[C@H]2[C@H]1O (stereo partly shown) [PKA inhibitor, Rp-8-CPT-cAMPS]
- frequency of HSC-like cells after inhibition [2]: no negative effect
- hematopoietic cell generation efficiency / blood emergence (CD43) [2]: no negative effect
- radial spreading of adherent endothelial-like cells [3]: did not have any effect
- hemogenic endothelial fraction [4]: no negative effect

Structure (SMILES): NC[C@H](O)c1ccc(O)c(O)c1 [NE, Norepinephrine]
- colony formation (CFU frequency) in methylcellulose ([7]; hematopoietic cells generated with 300 μM (NE300)): significant increase
- distribution of colony types ([7]; hematopoietic cells generated with NE): not affected
- HSC-like phenotype in total viable cells ([6]; 300 μM (NE300) at day 10 and day 12, analysis at day 14): significantly increased
- frequency of CD34high CD90high endothelial precursors ([6]; NE added at 300 μM): trend for an increase
- blood fraction (CD43/45+ in total viable) [6, 8]: unchanged
- progenitor fraction (CD34+ in CD43/45+ blood) [6, 8]: unchanged
- HSC-like cells in the CD43/45+ blood population ([6]; NE treatment at day 10 and 12, analysis day 14): specifically and significantly upregulated
